Experimental data published in patent US11912785B2, “Peptide compositions for slowing degradation of vitamin mineral supplements, foods, pharmaceutical and cosmetics” (priority 2017, dated 2024).
No end group written: not given here.

Columns and labels:
[1] = Decay of sodium ascorbate in HEPES pH 7.2 with 63 μM cupric sulfate; format: physicochemical
Experimental: Example 11 The effect of 1,1,1-Ala-Asp-Asp on the decay of sodium ascorbate in 10 mM HEPES pH 7.2 at 37 was compared with 1,1,1-triaspartate in the presence of 63 μM cupric sulfate (equivalent to 2 mg of elemental copper per 500 mL). […] This difference is somewhat offset by the ˜12% lower molecular weight of the former.

[2] = USP type 2 dissolution of Product #1a with peptide in the medium; conditions: for ascorbic acid recovered / maintained (in words): 0.25 mM, 45 min
Experimental: (§1) The dissolution studies described herein used a U.S. Pharmacopeia (USP) type 2 apparatus with 500 ml distilled H2O at 37° C. stirred at 50 RPM. […] Oxygen concentration was monitored with a Clarke electrode calibrated against argon and air sparged water at 37 C. The disappearance of several components was gauged against a mixture of pure standards of known concentration.
Product #1a also contained caffeine.

[3] = Decay of 5-MTHF in HEPES pH 7.2 with cupric sulfate and peptide; format: physicochemical; conditions: for half-life of 5-MTHF: 150 μM cupric sulfate
Experimental: (§2) Aqueous solutions of air saturated buffer, peptide, one or more vitamins, and metal salt (e.g. ferrous chloride or cupric sulfate) were combined and incubated at 37 C, unless otherwise stated. Samples were injected into the HPLC system as a function of time and monitored by a photodiode array detector.

[4] = Decomposition of 5-MTHF in 1 mM HCl with cupric sulfate; format: physicochemical; conditions: 3 mM peptide, 150 μM cupric sulfate, 37 C
Experimental: The decomposition of 5-MTHF is slower in acidic solutions than at neutral pH, and this was found even in the presence of cupric ions. […] With 3 mM 1,1,1-triaspartic free acid also present the time to half decomposition was increased to around 30 minutes.

[5] = USP type 2 dissolution of Product #1b with copper added as CuSO4 and peptide; format: physicochemical
Experimental: as §1

[6] = Effect of cupric sulfate on vitamin B12, thiamine, folic acid and sodium ascorbate in MES pH 6.2; format: physicochemical; conditions: 3 mM peptide; 10 mM MES pH 6.2, 150 μM cupric sulfate
Experimental: In the presence of 3 mM 1,1,1-triaspartate (as the tetra-sodium salt) the loss of Vitamin B12 was limited to about 20% even after 2 hours. Thiamine also rapidly disappeared by 40% over the first 26 minutes and then remained constant in the absence of an aspartate peptide. However, with 3 mM Asp-Asp-Asp included only 8% was lost at 36 min.

[7] = Effect of cupric sulfate on folic acid plus sodium ascorbate in various buffers; conditions: for initial ascorbate lost after 2 hours: 10 mM HEPES pH 7.2, 150 μM cupric sulfate
Experimental: as §2
Reactions were continuously but slow sparged with air so that oxygen would not become limiting.

[8] = 3 mM peptide, 3 mM ferrous chloride, 40 mM MES pH 6.2
Experimental: as §2

[9] = Water uptake and handling of peptide salts on exposure to atmosphere or humidity; format: physicochemical; conditions: for handling state after exposure to the atmosphere / weight gain (water) when left open to the atmosphere: ambient
Experimental: One such matrix is microcrystalline cellulose which is commonly used as an excipient in vitamin and mineral products. A method of combining the peptide salt with the excipient was also developed in which the former is dissolved in a suitable solvent, for example water, the excipient added with stirring, and removing the solvent from the mixture, for example by rotary evaporation under reduced pressure or lyophilization.
The resulting material was crushed to pass through a 200 mesh sieve.
The precipitate was resuspended in 0.5 ml ice-cold water, centrifuged again, and the second supernate discarded.
The precipitate was resuspended in 0.5 ml ice-cold water, recentrifuged, and the second supernate discarded. […] This was centrifuged and dried under high vacuum over P2O5.

[10] = product #2; 1 mM peptide
Experimental: as §1

[11] = 3 mM peptide, 50 mM MES pH 5.5, 150 μM cupric sulfate
[12] = 2 mM peptide, 25 μM 5-MTHF, 10 mM HEPES pH 7.2, 37 C

1,1,1-Ala-Asp-Asp
effectiveness compared with triaspartic acid on a molar basis [1]: about half as effective | 1st-order rate of ascorbate loss compared with Asp-Asp-Asp ([1]; 0.25 mM peptide, 63 μM cupric sulfate, 10 mM HEPES pH 7.2, 37): almost twice as fast

N[C@@H](CC(=O)O)C(=O)O [aspartic acid, reference compound]
rate of oxygen consumption compared with no peptide ([2]; Product #1a, 0.25 mM peptide): no improvement | ascorbic acid recovered / maintained (in words) ([2]; Product #1a): no improvement

Asp-Asp-Asp
half-life of 5-MTHF (in words) ([3]; 0.5 mM peptide): longer than Asp2 | time to half decomposition of 5-MTHF [4]: around 30 minutes | extent of caffeine oxidation to 1,3,7-trimethyluric acid compared with no peptide ([2]; Product #1a, 0.25 mM peptide): more than halved | folic acid in filtrate, of the labeled amount, 10 minute sample ([2]; Product #1a, 0.25 mM peptide): about 55% | folic acid in filtrate, of the labeled amount, 45 minute sample ([2]; Product #1a, 0.25 mM peptide): about 70% | p-aminobenzoyl-glutamate in the final sonicated sample compared with absence of peptide ([2]; Product #1a, 0.25 mM peptide): decreased to half | thiamine present at 45 minutes, of labeled content ([2]; Product #1a, 0.25 mM peptide): 104% | thiamine present at 45 minutes, of the actual content of the tablets ([2]; Product #1a, 0.25 mM peptide): 83% | concentration required for half maximal effect in preventing loss of ascorbate ([5]; 1 mg of copper added as CuSO4, compared with 2 mg): somewhat lower concentration | EC50 ([5]; copper added as CuSO4, peptide 0.05 to 0.5 mM, hyperbolic fit, read-out: concentration required for 50% of maximal effectiveness in preventing ascorbate loss): ~50 µM | thiamine lost at 36 min [6]: 8% | folic acid recovered after 82 minutes [7, 11]: more than 50% | time until ascorbate completely consumed [7, 11]: 47 min

Asp-Asp-Asp tetrasodium salt [tetra-sodium 1,1,1-triaspartate, Tetra-sodium-1,1,1-triaspartate]
time without significant loss of 5-MTHF [8]: about 50 minutes | decrease of 5-MTHF thereafter ([8]; after about 50 minutes): about 17 % per hour | handling state after exposure to the atmosphere ([9]; open to the atmosphere): became sticky | weight gain (water) when left open to the atmosphere ([9]; open to the atmosphere): 14% | half-life of 5-MTHF [3, 12]: 3.3 h | increase of average recovery of ascorbic acid at 45 minutes over no peptide [10]: 16% | increase of average recovery of thiamine at 45 minutes over no added peptide [10]: 20% | ascorbic acid recovered after 45 min, higher than with water only ([2]; Product #1a, 0.125 mmole peptide in 500 mL (0.25 mM), initial pH ~6.5, 37° C.): about 16 fold | oxygen remaining after 45 min, part of the original concentration ([2]; Product #1a, 0.25 mM peptide): about a third | rate of oxygen consumption compared with no peptide ([2]; Product #1a, 0.25 mM peptide): dramatically decreased | loss of Vitamin B12 after 2 hours [6]: about 20% | initial ascorbate lost after 2 hours ([7]; 1 mM peptide): 33% | initial ascorbate lost after 2 hours ([7]; 3 mM peptide): 18% | ascorbate remaining by 32 minutes ([7]; 3 mM peptide, 10 mM MES pH 6.2, 150 μM cupric sulfate, air sparged): 35%

Calcium1.5-1,1,1-triaspartate [Example D]
handling state after 24 hours at 90% RH ([9]; 90% RH, 24 hours): clumped slightly, but was easy to break up and was not sticky | handling state after exposure to the atmosphere ([9]; open to the atmosphere): remained free flowing flakes that were never sticky | weight gain (water) when left open to the atmosphere ([9]; open to the atmosphere): ~10%

Ferrous 1,1,1-triaspartate [Example P]
color / oxidation when open to air via a drying tube ([9]; open to air via a drying tube): did not change color or significantly oxidize | weight gain (water) when left open to the atmosphere ([9]; open to the atmosphere): 13% | color / oxidation when kept open to the atmosphere ([9]; open to the atmosphere, several days): became dark brown due to partial oxidation to iron(III)

N-acetyl-1,1,1-triaspartic acid [reference compound]
ability to inhibit oxidative destruction of other multivitamin components ([2]; test conditions not stated): lack of effectiveness

penta-sodium 1,1,1,1-tetraaspartate (DDDD; also: penta-sodium salt)
effectiveness compared with triaspartic acid on a molar basis [3]: just as effective on a molar basis | half-life of 5-MTHF [3, 12]: 2.97 h

tri-sodium 1,1,1-His-Asp-Asp [reference compound]
maintenance of ascorbate or thiamine, diminishing oxygen consumption, or oxidation of other components ([2]; Product #1a, 0.25 mM peptide, pH ~6.5): No improvement

tri-sodium 1,1-diaspartate
half-life of 5-MTHF [3, 12]: 1.2 h | half-life of 5-MTHF ([3]; 3 mM peptide, HEPES pH 7.2, 37 C): 1.45 h | half-life of 5-MTHF ([3]; 4 mM peptide, HEPES pH 7.2, 37 C): 1.67 h | profile of folic acid appearance in solution ([2]; Product #1a, 0.25 mM peptide): greater than without any peptide, and similar to that liberated by 0.05 mM Asp-Asp-Asp | profile of p-aminobenzoyl-glutamate formation ([2]; Product #1a, 0.25 mM peptide): suppressed in comparison to without any peptide, and similar to 0.05 mM Asp-Asp-Asp | profile of thiamine appearance in solution ([2]; Product #1a, 0.25 mM peptide): not significantly different than without peptide | rate of oxygen consumption compared with no peptide ([2]; Product #1a, 0.25 mM peptide): less than without a peptide | ascorbic acid recovered / maintained (in words) ([2]; Product #1a): greater than with no Asp2 but somewhat less than in the presence of 0.25 mM Asp-Asp-Asp
